The values that follow come from patent publication US10426782B2, “Pharmaceutical formulations of a pan-RAF kinase inhibitor and processes for their preparation” (Millennium Pharmaceuticals, Inc., priority 2014, dated 2019).

Some results are limits rather than exact numbers.

What all share (type): physicochemical
One data set is described as follows: log p of Compound 1.
A short description of data set [1]: Thermal gravimetric analysis (TGA). Conditions: elevated temperatures below 200° C. On the procedure: A suitable hot melt extruder (e.g. twin screw, Leistritz Nano-16 mm or Micro-18 mm) is set up with the appropriate supporting equipment, including a cooling conveyor (e.g., Domer model 220M060600D0169 or Nara TBC-309-DC) and feeder with auger (e.g., K-Tron Gravimeteric Feeder e.g., with dual flight 20 mm auger). Example processing parameters are as follows: feed rate: 2.0 kg/hr; screw speed: 250 rpm; and barrel temperature: 170, 140, 90, 50° C. or 1.0 kg/hr; screw speed: 275 rpm; and barrel temperature: 175, 140, 90, 50° C.

A further data set in a line: Solubility of Compound 1.

In the case of `C[C@@H](NC(=O)c1ncnc(N)c1Cl)c1ncc(C(=O)Nc2cc(C(F)(F)F)c(Cl)cn2)s1` [Compound 1, (R)-2-(1-(6-amino-5-chloropyrimidine-4-carboxamido)ethyl)-N-(5-chloro-4-(trifluoromethyl)pyridin-2-yl)thiazole-5-carboxamide], the logP (in general, the decadic logarithm of the partition coefficient of the neutral form, usually between octanol and water) in “log p of Compound 1” was determined as 3.63. Further, the “thermal stability by TGA” value in data set [1] is “relatively stable”. The solubility (usually the dissolved amount per volume that the medium holds) in “Solubility of Compound 1” is less than 1000 µg/mL.
